Legend:
[1] = tested on: Trichostrongylus colubriformis; test: Efficacy against Trichostrongylus colubriformis in cattle; type: in vivo; conditions: 10 mg/kg, oral, single treatment 32 days after infection, necropsy 7 days after treatment
Protocol: (§1) Anthelmintic effects of compounds of this invention were tested in vivo using Haemonchus contortus and Trichostrongylus colubriformis in cattle. The cattle were orally infected with approximately 10,000 third-stage larvae of Haemonchus contortus and approximately 30,000 third-stage larvae of Trichostrongylus colubriformis. Thirty-two days after infection, the cattle in the treatment group were treated once orally with the compound of Example 11 at a dose of 10 mg/kg bodyweight. Seven days after treatment, the cattle were necropsied, and the worm burden in the abomasum and the small intestine was determined. The efficacy was defined as the reduction of the mean worm count in the infected cattle of the treatment group in comparison to the infected cattle in the untreated negative control group.

[2] = tested on: Haemonchus contortus; test: Efficacy against Haemonchus contortus in cattle; type: in vivo; conditions: 10 mg/kg, oral, single treatment 32 days after infection, necropsy 7 days after treatment
Protocol: as §1

[3] = tested on: Haemonchus contortus; test: Efficacy against Haemonchus contortus in jirds; type: in vivo, jirds (Meriones unguiculatus); conditions: single treatment 10 days after infection, necropsy 3 days after treatment
Protocol: Anthelmintic effects of compounds of this invention were tested in vivo using Haemonchus contuortus in jirds (Meriones unguiculatus). The jirds were orally infected with approximately 750-3,000 third-stage larvae of Haemonchus contortus. Ten days after infection, the jirds in the treatment groups were treated once orally or subcutaneously at a dose of 2, 10, and/or 50 mg per kg bodyweight. Three days after treatment, the jirds were necropsied, and the larvae burden in the stomach was determined. The efficacy was defined as the reduction of the mean larvae count in the jirds of the treatment groups in comparison to the infected jirds in the untreated negative control group. All the compounds of this invention tested using this protocol reduced the Haemonchus contortus count in both the oral and subcutaneous experiments.

[4] = tested on: Haemonchus contortus; test: Efficacy against Haemonchus contortus in sheep; type: in vivo; conditions: oral, single treatment 35 days after infection, necropsy 7 days after treatment
Protocol: Anthelmintic effects of compounds of this invention were tested in vivo using Haemonchus contortus in sheep. The sheep were orally infected with approximately 5,000 third-stage larvae of Haemonchus contortus. Thirty-five days after infection, the sheep in the treatment groups were treated once orally or subcutaneously at a dose of 2, 5, 10, and/or 50 mg per kg bodyweight. Seven days after treatment, the sheep were necropsied, and the worm burden in the abomasum was determined. The efficacy was defined as the reduction of the mean worm count in the infected sheep of the treatment groups in comparison to the infected sheep in the untreated negative control group.

[5] = tested on: Haemonchus contortus (L4), isolate resistant to benzimidazoles and ivermectin and anthelmintic-sensitive isolate; test: In vitro resistance-breaking activity against Haemonchus contortus L4, resistant versus sensitive isolate (MEC); conditions: isolate resistant to benzimidazoles and ivermectin vs sensitive isolate
Protocol: Anthelmintic resistance-breaking effects of compounds of this invention were tested in vitro using larval stage 4 (“L4”) of the parasitic nematode species Haemonchus contortus (Barber's pole worm in ruminants). One isolate of Haemonchus contortus with a resistance to benzimidazoles and ivermectin was tested in comparison to the anthelmintic-sensitive isolate of Haemonchus contortus. When conducting these experiments, various concentrations of the compounds were incubated in 96-well microtiter plates. Parasites were then distributed at 20 larvae per well. The anthelmintic effects were classified by microscopic examination. The microscopic examination included assessing mortality, damage, motility, progression of development, and neutral red uptake by the larvae in comparison to a DMSO-control and standard anthelmintics. The anthelmintic effects were defined by the minimum effective concentration (“MEC”).

Compound: O=C(CO[C@H]1CC[C@H](Nc2ccc([N+](=O)[O-])c(C(F)(F)F)c2)CC1)N1CCN(c2ccc(C(F)(F)F)cc2)CC1 [Example 11, 2-[trans-4-(4-nitro-3-trifluoromethyl-phenylamino)-cyclohexyloxy]-1-[4-(4-trifluoromethyl-phenyl)-piperazin-1-yl]-ethanone]
- Efficacy against T. colubriformis (reduction of the mean worm count) [1]: 99%
- Efficacy against H. contortus (reduction of the mean worm count) [2]: 98%
- % Reduction in H. contortus count ([3]; 2 mg/kg, oral): 84%
- % Reduction in H. contortus count ([3]; 2 mg/kg, subcutaneous): 69%
- % Reduction in H. contortus count ([3]; 50 mg/kg, oral): 98%
- % Reduction in H. contortus count ([3]; 50 mg/kg, subcutaneous): 99%
- % Reduction in H. contortus count ([4]; 2 mg/kg): 0%
- % Reduction in H. contortus count ([4]; 5 mg/kg): 95%
- % Reduction in H. contortus count ([4]; 10 mg/kg): 100%
- activity against the resistant isolate compared with the sensitive isolate of Haemonchus contortus [5]: same activity
